Test results reported in patent US9850245B2 (Merck Sharp & Dohme Corp., priority 2014, dated 2017).
pIC50: −log10 of the molar value.

The molecules below were run against ROMK (Homo sapiens (Human), UniProt P48048) (assay: Thallium Flux Assay).
Type: cell-based
Experimental: A Thallium Flux Assay was performed on the compounds of the Examples. This assay has been described previously; see, e.g., PCT Published Application WO 2013/062900.

Sequence of ROMK (P48048 whole entry): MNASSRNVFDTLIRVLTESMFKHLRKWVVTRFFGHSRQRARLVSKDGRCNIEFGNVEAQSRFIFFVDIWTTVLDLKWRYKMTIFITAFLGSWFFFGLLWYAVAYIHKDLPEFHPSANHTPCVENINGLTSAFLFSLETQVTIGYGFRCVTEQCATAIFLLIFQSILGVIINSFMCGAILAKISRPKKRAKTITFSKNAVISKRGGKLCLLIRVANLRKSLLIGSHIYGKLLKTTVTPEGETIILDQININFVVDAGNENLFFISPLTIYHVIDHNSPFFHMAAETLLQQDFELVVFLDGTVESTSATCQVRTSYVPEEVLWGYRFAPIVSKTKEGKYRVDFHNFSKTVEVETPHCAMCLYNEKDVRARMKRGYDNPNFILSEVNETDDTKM

In order of falling pIC50:
1. CC1=C(N2CCOC3(CCN(CC(O)c4ccc(-n5cnnn5)cc4C)CC3)C2)COC1=O (single isomer, unassigned) [Example 31B, 4-(9-(2-hydroxy-2-(2-methyl-4-(1H-tetrazol-1-yl)phenyl)ethyl)-1-oxa-4,9-diazaspiro[5.5]undecan-4-yl)-3-methylfuran-2(5H)-one]  7.59
2. COc1cc(-n2cnnn2)ccc1C(O)CN1CCC2(CC1)CN(C1=C(C)C(=O)OC1)CCO2 (single isomer, unassigned) [Example 33A, 4-(9-(2-hydroxy-2-(2-methoxy-4-(1H-tetrazol-1-yl)phenyl)ethyl)-1-oxa-4,9-diazaspiro[5.5]undecan-4-yl)-3-methylfuran-2(5H)-one]  7.52
3. CC1=C(N2CCOC3(CCN(C[C@H](O)c4ccc5c(c4C)COC5=O)CC3)CC2)COC1=O (single isomer, unassigned) [Example 41]  7.49
4. CC1=C(N2CCNC3(CCN(CC(O)c4ccc(-n5cnnn5)cc4)CC3)C2=O)COC1=O (single isomer, unassigned) [Example 5B, 9-(2-(4-(1H-tetrazol-1-yl)phenyl)-2-hydroxyethyl)-4-(4-methyl-5-oxo-2,5-dihydrofuran-3-yl)-1,4,9-triazaspiro[5.5]undecan-5-one]  7.43
5. CC1=C(N2CCOC3(CCN(CC(O)c4ccc(-n5cnnn5)cc4F)CC3)C2)COC1=O (single isomer, unassigned) [Example 32A, 4-(9-(2-(2-fluoro-4-(1H-tetrazol-1-yl)phenyl)-2-hydroxyethyl)-1-oxa-4,9-diazaspiro[5.5]undecan-4-yl)-3-methylfuran-2(5H)-one]  7.43
6. CC1=C(N2CCOC3(CCN(CC(O)c4ccc(-n5cnnn5)cn4)CC3)C2=O)COC1=O (single isomer, unassigned) [Example 43, 9-(2-(5-(1H-tetrazol-1-yl)pyridin-2-yl)-2-hydroxyethyl)-4-(4-methyl-5-oxo-2,5-dihydrofuran-3-yl)-1-oxa-4,9-diazaspiro[5.5]undecan-5-one]  7.43
7. CC1=C(N2CCN(C)C3(CCN(CC(O)c4ccc(-n5cnnn5)nc4C)CC3)C2=O)COC1=O (single isomer, unassigned) [Example 35A, 9-(2-hydroxy-2-(2-methyl-6-(1H-tetrazol-1-yl)pyridin-3-yl)ethyl)-1-methyl-4-(4-methyl-5-oxo-2,5-dihydrofuran-3-yl)-1,4,9-triazaspiro[5.5]undecan-5-one]  7.38
8. CC1=C(N2CCNC3(CCN(CC(O)c4ccc(-n5cnnn5)cc4)CC3)C2=O)COC1=O (single isomer, unassigned) [Example 5A, 9-(2-(4-(1H-tetrazol-1-yl)phenyl)-2-hydroxyethyl)-4-(4-methyl-5-oxo-2,5-dihydrofuran-3-yl)-1,4,9-triazaspiro[5.5]undecan-5-one]  7.37
9. CC1=C(N2CCNC3(CCN(CC(O)c4ccc(-n5cnnn5)nc4C)CC3)C2=O)COC1=O (single isomer, unassigned) [Example 2B, 9-(2-hydroxy-2-(2-methyl-6-(1H-tetrazol-1-yl)pyridin-3-yl)ethyl)-4-(4-methyl-5-oxo-2,5-dihydrofuran-3-yl)-1,4,9-triazaspiro[5.5]undecan-5-one]  7.25
10. CC1=C(N2CCOC3(CCN(CC(O)c4cnc(-n5cnnn5)nc4)CC3)C2=O)COC1=O (single isomer, unassigned) [Example 46B, 9-(2-(2-(1H-tetrazol-1-yl)pyrimidin-5-yl)-2-hydroxyethyl)-4-(4-methyl-5-oxo-2,5-dihydrofuran-3-yl)-1-oxa-4,9-diazaspiro[5.5]undecan-5-one]  7.24
11. Cc1nc(-n2cnnn2)ccc1C(O)CN1CCC2(CC1)CCN(C1=CC(=O)OC1)C(=O)O2 (single isomer, unassigned) [Example 27, 9-(2-hydroxy-2-(2-methyl-6-(1H-tetrazol-1-yl)pyridin-3-yl)ethyl)-3-(5-oxo-2,5-dihydrofuran-3-yl)-1-oxa-3,9-diazaspiro[5.5]undecan-2-one]  7.18
12. Cc1cc(-n2cnnn2)ccc1C(O)CN1CCC2(CC1)CN(C1=CC(=O)OC1)CCO2 (single isomer, unassigned) [Example 30B, 4-(9-(2-hydroxy-2-(2-methyl-4-(1H-tetrazol-1-yl)phenyl)ethyl)-1-oxa-4,9-diazaspiro[5.5]undecan-4-yl)furan-2(5H)-one]  7.13
13. COc1cc(-n2cnnn2)ccc1C(O)CN1CCC2(CC1)CN(C1=C(C)C(=O)OC1)CCO2 (single isomer, unassigned) [Example 33B, 4-(9-(2-hydroxy-2-(2-methoxy-4-(1H-tetrazol-1-yl)phenyl)ethyl)-1-oxa-4,9-diazaspiro[5.5]undecan-4-yl)-3-methylfuran-2(5H)-one]  7.04
14. CC1=C(N2CCOC3(CCN(CC(O)c4cnc(-n5cnnn5)cn4)CC3)C2=O)COC1=O (single isomer, unassigned) [Example 18B, 9-(2-(5-(1H-tetrazol-1-yl)pyrazin-2-yl)-2-hydroxyethyl)-4-(4-methyl-5-oxo-2,5-dihydrofuran-3-yl)-1-oxa-4,9-diazaspiro[5.5]undecan-5-one]  6.96
15. CC1=C(N2CCNC3(CCN(CC(O)c4cnc(-n5cnnn5)cn4)CC3)C2=O)COC1=O (single isomer, unassigned) [Example 3A, 9-(2-(5-(1H-tetrazol-1-yl)pyrazin-2-yl)-2-hydroxyethyl)-4-(4-methyl-5-oxo-2,5-dihydrofuran-3-yl)-1,4,9-triazaspiro[5.5]undecan-5-one]  6.94
16. CC1=C(N2CCOC3(CCN(CC(O)c4cnc(-n5cnnn5)cn4)CC3)CC2)COC1=O (single isomer, unassigned) [Example 40, 4-(3-(2-(5-(1H-tetrazol-1-yl)pyrazin-2-yl)-2-hydroxyethyl)-7-oxa-3,10-diazaspiro[5.6]dodecan-10-yl)-3-methylfuran-2(5H)-one]  6.93
17. CC1=C(N2CCOC3(CCN(CC(O)c4ccc(-n5cnnn5)cc4F)CC3)C2)COC1=O (single isomer, unassigned) [Example 32B, 4-(9-(2-(2-fluoro-4-(1H-tetrazol-1-yl)phenyl)-2-hydroxyethyl)-1-oxa-4,9-diazaspiro[5.5]undecan-4-yl)-3-methylfuran-2(5H)-one]  6.91
18. CC1=C(N2CCOC3(CCN(CC(O)c4ccc(-n5cnnn5)cc4C)CC3)C2)COC1=O (single isomer, unassigned) [Example 31A, 4-(9-(2-hydroxy-2-(2-methyl-4-(1H-tetrazol-1-yl)phenyl)ethyl)-1-oxa-4,9-diazaspiro[5.5]undecan-4-yl)-3-methylfuran-2(5H)-one]  6.90
19. CC1=C(N2CCNC3(CCN(CC(O)c4cnc(-n5cnnn5)cn4)CC3)C2=O)COC1=O (single isomer, unassigned) [Example 3B, 9-(2-(5-(1H-tetrazol-1-yl)pyrazin-2-yl)-2-hydroxyethyl)-4-(4-methyl-5-oxo-2,5-dihydrofuran-3-yl)-1,4,9-triazaspiro[5.5]undecan-5-one]  6.85
20. CC1=C(N2CCN(C)C3(CCN(CC(O)c4ccc(-n5cnnn5)nc4C)CC3)C2=O)COC1=O (single isomer, unassigned) [Example 35B, 9-(2-hydroxy-2-(2-methyl-6-(1H-tetrazol-1-yl)pyridin-3-yl)ethyl)-1-methyl-4-(4-methyl-5-oxo-2,5-dihydrofuran-3-yl)-1,4,9-triazaspiro[5.5]undecan-5-one]  6.84
21. CC1=C(N2C(=O)C3(CCN(C[C@@H](O)c4ccc(-n5cnnn5)nc4)CC3)OCC2C)COC1=O (single isomer, unassigned) [Example 10A]  6.81
22. CC1COC2(CCN(C[C@@H](O)c3ccc(-n4cnnn4)nc3)CC2)C(=O)N1C1=CC(=O)OC1 (single isomer, unassigned) [Example 13A]  6.64
23. Cc1c([C@@H](O)CN2CCC3(CC2)OCC(C)N(C2=CC(=O)OC2)C3=O)ccc2c1COC2=O (single isomer, unassigned) [Example 14]  6.58
24. CC1=C(N2C(=O)C3(CCN(C[C@H](O)c4ccc5c(c4C)COC5=O)CC3)OCC2C)COC1=O (single isomer, unassigned) [Example 11]  6.57
25. CC1=C(N2C(=O)C3(CCN(C[C@H](O)c4ccc(-n5cnnn5)nc4)CC3)OCC2C)COC1=O (single isomer, unassigned) [Example 10B]  6.51
26. CC1=C(N2C(=O)C3(CCN(C[C@@H](O)c4ccc(-n5cnnn5)nc4)CC3)OCC2C)COC1=O (single isomer, unassigned) [Example 10C]  6.50
27. CC1COC2(CCN(C[C@H](O)c3ccc(-n4cnnn4)nc3)CC2)C(=O)N1C1=CC(=O)OC1 (single isomer, unassigned) [Example 13B]  6.38
28. CC1=C(N2CCOC3(CCN(CC(O)c4cnc(-n5cnnn5)cn4)CC3)C2)COC1=O (single isomer, unassigned) [Example 48A, 4-(9-(2-(5-(1H-tetrazol-1-yl)pyrazin-2-yl)-2-hydroxyethyl)-1-oxa-4,9-diazaspiro[5.5]undecan-4-yl)-3-methylfuran-2(5H)-one]  6.34
29. Cc1nc(-n2cnnn2)ccc1C(O)CN1CCC2(CC1)CN(C1=CC(=O)OC1)C(=O)O2 (single isomer, unassigned) [Example 17, 8-(2-hydroxy-2-(2-methyl-6-(1H-tetrazol-1-yl)pyridin-3-yl)ethyl)-3-(5-oxo-2,5-dihydrofuran-3-yl)-1-oxa-3,8-diazaspiro[4.5]decan-2-one]  6.33
30. Cc1cc(-n2cnnn2)ccc1C(O)CN1CCC2(CC1)CN(C1=CC(=O)OC1)CCO2 (single isomer, unassigned) [Example 30A, 4-(9-(2-hydroxy-2-(2-methyl-4-(1H-tetrazol-1-yl)phenyl)ethyl)-1-oxa-4,9-diazaspiro[5.5]undecan-4-yl)furan-2(5H)-one]  6.32
31. CC1=C(N2CCOC3(CC4CCC(C3)N4CC(O)c3cnc(-n4cnnn4)cn3)C2=O)COC1=O (single isomer, unassigned) [Example 44]  6.32
32. CC1=C(N2CCCOC3(CCN(CC(O)c4ccc(-n5cnnn5)nc4C)CC3)C2=O)COC1=O (single isomer, unassigned) [Example 38, 3-(2-hydroxy-2-(2-methyl-6-(1H-tetrazol-1-yl)pyridin-3-yl)ethyl)-11-(4-methyl-5-oxo-2,5-dihydrofuran-3-yl)-7-oxa-3,11-diazaspiro[5.6]dodecan-12-one]  6.28
